Laboratory results published in PMC5218480 (PLoS ONE, 2017).

Test system: MV-4-11 cells
Test: Gene expression microarray analysis (Affymetrix PrimeView) and GSEA
Format: cell-based, human
Parameters: RFU PODN (11730768_x_at) / Fold change /veh PODN (11730768_x_at) / RFU LINC00158 (11744669_a_at) / Fold change /veh LINC00158 (11744669_a_at) / RFU DUSP10 (11751237_a_at) / Fold change /veh DUSP10 (11751237_a_at) / RFU ID3 (11757404_x_at) / Fold change /veh ID3 (11757404_x_at) / RFU PLEKHG5 (11737974_s_at) / Fold change /veh PLEKHG5 (11737974_s_at) / RFU LRRC4B (11730491_at) / Fold change /veh LRRC4B (11730491_at) / RFU GIMAP4 (11747438_a_at) / Fold change /veh GIMAP4 (11747438_a_at) / RFU KRT8 (11758183_x_at) / Fold change /veh KRT8 (11758183_x_at) / RFU CNN1 (11734310_a_at) / Fold change /veh CNN1 (11734310_a_at) / RFU VPS37D (11726825_at) / Fold change /veh VPS37D (11726825_at) / RFU C10orf10 (11716522_x_at) / Fold change /veh C10orf10 (11716522_x_at) / RFU KIR2DL2 /// KIR2DL4 /// KIR2DL5A /// KIR2DL5B /// KIR2DS1 /// KIR2DS2 /// KIR2DS3 /// KIR2DS4 /// KIR3DL3 /// KIR3DL3 /// KIR3DS1 (11738374_at) / Fold change /veh KIR2DL2 /// KIR2DL4 /// KIR2DL5A /// KIR2DL5B /// KIR2DS1 /// KIR2DS2 /// KIR2DS3 /// KIR2DS4 /// KIR3DL3 /// KIR3DL3 /// KIR3DS1 (11738374_at) / RFU C1QL1 (11718748_at) / Fold change /veh C1QL1 (11718748_at) / RFU TMPRSS4 (11747572_a_at) / Fold change /veh TMPRSS4 (11747572_a_at) / RFU HAMP (11756126_x_at) / Fold change /veh HAMP (11756126_x_at) / RFU RNFT2 (11725882_a_at) / Fold change /veh RNFT2 (11725882_a_at) / RFU NR4A2 (11747474_a_at) / Fold change /veh NR4A2 (11747474_a_at) / RFU ABCC12 (11746883_a_at) / Fold change /veh ABCC12 (11746883_a_at) / RFU TMEM136 (11760407_x_at) / Fold change /veh TMEM136 (11760407_x_at) / RFU CLDN22 /// WWC2 (11732394_at) / Fold change /veh CLDN22 /// WWC2 (11732394_at) / RFU HLA-DPB1 (11760878_x_at) / Fold change /veh HLA-DPB1 (11760878_x_at) / RFU SPINT1 (11716480_a_at) / Fold change /veh SPINT1 (11716480_a_at) / RFU GAP43 (11754022_s_at) / Fold change /veh GAP43 (11754022_s_at) / RFU A4GNT (11735810_at) / Fold change /veh A4GNT (11735810_at) / RFU PRB3 (11715151_x_at) / Fold change /veh PRB3 (11715151_x_at) / RFU TUBB4B (11761932_at) / Fold change /veh TUBB4B (11761932_at) / RFU CAPN14 (11732068_a_at) / Fold change /veh CAPN14 (11732068_a_at) / RFU TMCC2 (11721928_a_at) / Fold change /veh TMCC2 (11721928_a_at) / RFU IRGQ (11745062_a_at) / Fold change /veh IRGQ (11745062_a_at) / RFU FAM174B (11720279_a_at) / Fold change /veh FAM174B (11720279_a_at) / RFU TMPRSS4 (11748680_a_at) / Fold change /veh TMPRSS4 (11748680_a_at) / RFU FAM212B (11763350_a_at) / Fold change /veh FAM212B (11763350_a_at) / RFU PLEKHG5 (11743358_a_at) / Fold change /veh PLEKHG5 (11743358_a_at) / RFU ZSCAN30 (11745921_a_at) / Fold change /veh ZSCAN30 (11745921_a_at) / RFU CMKLR1 (11741424_a_at) / Fold change /veh CMKLR1 (11741424_a_at) / RFU LOC101060620 /// MAPK8IP1 (11723275_at) / Fold change /veh LOC101060620 /// MAPK8IP1 (11723275_at) / RFU SPTSSB (11747773_x_at) / Fold change /veh SPTSSB (11747773_x_at) / RFU PRSS12 (11739890_at) / Fold change /veh PRSS12 (11739890_at) / RFU BIN1 (11741810_x_at) / Fold change /veh BIN1 (11741810_x_at) / RFU WNT11 (11732464_a_at) / Fold change /veh WNT11 (11732464_a_at) / RFU C10orf10 (11716521_a_at) / Fold change /veh C10orf10 (11716521_a_at) / RFU C5orf56 (11738089_at) / Fold change /veh C5orf56 (11738089_at) / RFU CYB561 (11721691_x_at) / Fold change /veh CYB561 (11721691_x_at) / RFU ANKRD19P (11752326_a_at) / Fold change /veh ANKRD19P (11752326_a_at) / RFU OR2T12 /// OR2T33 /// OR2T8 (11738714_s_at) / Fold change /veh OR2T12 /// OR2T33 /// OR2T8 (11738714_s_at) / RFU VCAN (11748164_a_at) / Fold change /veh VCAN (11748164_a_at) / RFU JSRP1 (11732532_at) / Fold change /veh JSRP1 (11732532_at) / RFU KRTAP10-11 (11738290_x_at) / Fold change /veh KRTAP10-11 (11738290_x_at) / RFU MYO3A (11730013_a_at) / Fold change /veh MYO3A (11730013_a_at) / RFU EBF3 (11725865_a_at) / Fold change /veh EBF3 (11725865_a_at) / RFU CAMK2N1 (11719241_x_at) / Fold change /veh CAMK2N1 (11719241_x_at) / RFU C5orf56 (11738088_a_at) / Fold change /veh C5orf56 (11738088_a_at) / RFU OLFML3 (11715873_a_at) / Fold change /veh OLFML3 (11715873_a_at) / RFU LOC100653217 /// NTM (11731650_a_at) / Fold change /veh LOC100653217 /// NTM (11731650_a_at) / RFU MAPK11 (11762145_a_at) / Fold change /veh MAPK11 (11762145_a_at) / RFU FIZ1 (11724087_x_at) / Fold change /veh FIZ1 (11724087_x_at) / RFU OASL (11726364_x_at) / Fold change /veh OASL (11726364_x_at) / RFU SOX15 (11748057_x_at) / Fold change /veh SOX15 (11748057_x_at) / RFU CD79A (11719716_a_at) / Fold change /veh CD79A (11719716_a_at) / RFU HIST1H1D (11736915_at) / Fold change /veh HIST1H1D (11736915_at) / RFU CASKIN2 (11723855_a_at) / Fold change /veh CASKIN2 (11723855_a_at) / RFU LOC730098 (11760151_x_at) / Fold change /veh LOC730098 (11760151_x_at) / RFU OR4N2 (11742367_at) / Fold change /veh OR4N2 (11742367_at) / RFU PRRT2 (11749266_a_at) / Fold change /veh PRRT2 (11749266_a_at) / RFU SNX32 (11753110_a_at) / Fold change /veh SNX32 (11753110_a_at) / RFU CDHR5 (11726645_a_at) / Fold change /veh CDHR5 (11726645_a_at) / RFU RCAN1 (11760418_a_at) / Fold change /veh RCAN1 (11760418_a_at) / RFU FAM167A (11723789_a_at) / Fold change /veh FAM167A (11723789_a_at) / RFU FAM26E (11764081_at) / Fold change /veh FAM26E (11764081_at) / RFU ISYNA1 (11749810_s_at) / Fold change /veh ISYNA1 (11749810_s_at) / RFU ACY1 (11761880_at) / Fold change /veh ACY1 (11761880_at) / RFU 11764098_at / Fold change /veh 11764098_at / RFU SAMD14 (11745864_x_at) / Fold change /veh SAMD14 (11745864_x_at) / RFU NPB (11741838_a_at) / Fold change /veh NPB (11741838_a_at) / RFU TMPRSS6 (11731388_a_at) / Fold change /veh TMPRSS6 (11731388_a_at) / RFU KRTAP10-2 (11738614_at) / Fold change /veh KRTAP10-2 (11738614_at) / RFU ARHGAP8 /// PRR5-ARHGAP8 (11727945_x_at) / Fold change /veh ARHGAP8 /// PRR5-ARHGAP8 (11727945_x_at) / RFU KRTAP5-7 /// NADSYN1 (11734609_at) / Fold change /veh KRTAP5-7 /// NADSYN1 (11734609_at) / RFU RASL12 (11751679_a_at) / Fold change /veh RASL12 (11751679_a_at) / RFU CDKN2B (11736163_a_at) / Fold change /veh CDKN2B (11736163_a_at) / RFU PRF1 (11729649_at) / Fold change /veh PRF1 (11729649_at) / RFU, ZNF638 /// ZNF638-IT1 / Fold change vs veh, ZNF638 /// ZNF638-IT1 / RFU, PANK3 / Fold change vs veh, PANK3 / RFU, SH3YL1 / Fold change vs veh, SH3YL1 / RFU, ZEB2 / Fold change vs veh, ZEB2 / RFU, NRIP1 / Fold change vs veh, NRIP1 / RFU, PTTG1IP / Fold change vs veh, PTTG1IP / RFU, CAPN2 / Fold change vs veh, CAPN2 / RFU, MED14 / Fold change vs veh, MED14 / RFU, SNORA58 / Fold change vs veh, SNORA58 / RFU, C1orf63 / Fold change vs veh, C1orf63 / RFU, LRRFIP1 / Fold change vs veh, LRRFIP1 / RFU, NDUFAF7 / Fold change vs veh, NDUFAF7 / RFU, SLC12A2 / Fold change vs veh, SLC12A2 / RFU, IBTK / Fold change vs veh, IBTK / RFU, ESF1 / Fold change vs veh, ESF1 / Fold change vs veh, TMEM50B / RFU, TAOK1 / Fold change vs veh, TAOK1 / RFU, ACBD3 / Fold change vs veh, ACBD3 / RFU, TMA16 / Fold change vs veh, TMA16 / RFU, RWDD3 / Fold change vs veh, RWDD3 / RFU, BCAT1 / Fold change vs veh, BCAT1 / RFU, EDEM3 / Fold change vs veh, EDEM3 / RFU, TMEM33 / Fold change vs veh, TMEM33 / RFU, WDR75 / Fold change vs veh, WDR75 / RFU, AHCTF1 / Fold change vs veh, AHCTF1 / RFU, TFRC / Fold change vs veh, TFRC / RFU, ZDHHC17 / Fold change vs veh, ZDHHC17 / RFU, NOM1 / Fold change vs veh, NOM1 / RFU, ARL8B / Fold change vs veh, ARL8B / RFU, ZBTB11 / Fold change vs veh, ZBTB11 / RFU, TAMM41 / Fold change vs veh, TAMM41 / RFU, KIAA1704 /// LOC100996395 / Fold change vs veh, KIAA1704 /// LOC100996395 / RFU, ING1 / Fold change vs veh, ING1 / RFU, TRMT61B / Fold change vs veh, TRMT61B / RFU, FUBP3 / Fold change vs veh, FUBP3 / RFU, TP53 / Fold change vs veh, TP53 / RFU, TNKS2 / Fold change vs veh, TNKS2 / RFU, ZFP14 / Fold change vs veh, ZFP14 / RFU, ACTR2 / Fold change vs veh, ACTR2 / RFU, PPP3R1 / Fold change vs veh, PPP3R1 / RFU, PIK3R1 / Fold change vs veh, PIK3R1 / RFU, HNRNPA1 / Fold change vs veh, HNRNPA1 / RFU, RNF170 / Fold change vs veh, RNF170 / RFU, ZNF28 / Fold change vs veh, ZNF28 / RFU, RNGTT / Fold change vs veh, RNGTT / RFU, OGT / Fold change vs veh, OGT / RFU, BRD1 / Fold change vs veh, BRD1 / RFU, MARS / Fold change vs veh, MARS / RFU, ZNF655 / Fold change vs veh, ZNF655 / RFU, FAHD1 / Fold change vs veh, FAHD1 / RFU, BDP1 / Fold change vs veh, BDP1 / RFU, LRRCC1 / Fold change vs veh, LRRCC1 / RFU, ARID1A / Fold change vs veh, ARID1A / RFU, ZNF146 / Fold change vs veh, ZNF146 / RFU, ZNF330 / Fold change vs veh, ZNF330 / RFU, GPN3 / Fold change vs veh, GPN3 / RFU, C9orf123 / Fold change vs veh, C9orf123 / RFU, N4BP2L2 / Fold change vs veh, N4BP2L2 / RFU, ARFIP1 / Fold change vs veh, ARFIP1 / RFU, FAM179B / Fold change vs veh, FAM179B / RFU, BCL10 / Fold change vs veh, BCL10 / RFU, UHRF1BP1L / Fold change vs veh, UHRF1BP1L / RFU, BET1 / Fold change vs veh, BET1 / RFU, CNOT2 / Fold change vs veh, CNOT2 / RFU, ZNF268 / Fold change vs veh, ZNF268 / Fold change vs veh, ZNF507 / RFU, DGCR2 / Fold change vs veh, DGCR2 / RFU, WDSUB1 / Fold change vs veh, WDSUB1 / Fold change vs veh, HSP90B1 /// MIR3652 / RFU, ADSS / Fold change vs veh, ADSS / RFU, GK / Fold change vs veh, GK / RFU, ZNF148 / Fold change vs veh, ZNF148 / RFU, TAF9 / Fold change vs veh, TAF9 / RFU, SLC1A5 / Fold change vs veh, SLC1A5 / RFU, SLMO2 / Fold change vs veh, SLMO2 / RFU, ABCC4 / Fold change vs veh, ABCC4 / RFU, LOC101060439 /// RAP1B / Fold change vs veh, LOC101060439 /// RAP1B / RFU, RFX7 / Fold change vs veh, RFX7 / RFU, GTPBP10 / Fold change vs veh, GTPBP10 / RFU, CNEP1R1 / Fold change vs veh, CNEP1R1 / RFU, BIVM-ERCC5 /// ERCC5 / Fold change vs veh, BIVM-ERCC5 /// ERCC5 / RFU, ILF3 / Fold change vs veh, ILF3 / RFU 11762660_at / Fold change /veh 11762660_at / RFU VCAN (11757783_s_at) / Fold change /veh VCAN (11757783_s_at) / RFU DDX43 (11728927_at) / Fold change /veh DDX43 (11728927_at) / RFU KRT8 (11758188_x_at) / Fold change /veh KRT8 (11758188_x_at) / RFU NKD1 (11759106_at) / Fold change /veh NKD1 (11759106_at) / RFU SRD5A1 (11742802_a_at) / Fold change /veh SRD5A1 (11742802_a_at) / RFU TPSAB1 /// TPSB2 (11721975_s_at) / Fold change /veh TPSAB1 /// TPSB2 (11721975_s_at) / RFU GSTM3 (11746129_a_at) / Fold change /veh GSTM3 (11746129_a_at) / RFU IL23R (11737362_x_at) / Fold change /veh IL23R (11737362_x_at) / RFU TMEM51 (11727254_a_at) / Fold change /veh TMEM51 (11727254_a_at) / RFU PIWIL2 (11732686_x_at) / Fold change /veh PIWIL2 (11732686_x_at) / RFU ORM1 (11744905_x_at) / Fold change /veh ORM1 (11744905_x_at) / RFU CCDC152 (11743942_at) / Fold change /veh CCDC152 (11743942_at) / RFU ECM1 (11717891_a_at) / Fold change /veh ECM1 (11717891_a_at) / RFU IL23R (11748794_a_at) / Fold change /veh IL23R (11748794_a_at) / RFU TNFAIP8L3 (11732012_x_at) / Fold change /veh TNFAIP8L3 (11732012_x_at) / RFU MBOAT4 (11741988_at) / Fold change /veh MBOAT4 (11741988_at) / RFU 11764193_at / Fold change /veh 11764193_at / RFU TMEM53 (11763286_at) / Fold change /veh TMEM53 (11763286_at) / RFU MAGEB2 (11727129_at) / Fold change /veh MAGEB2 (11727129_at) / RFU TMEM200A (11744735_a_at) / Fold change /veh TMEM200A (11744735_a_at) / RFU CCDC152 (11751479_a_at) / Fold change /veh CCDC152 (11751479_a_at) / RFU FAM211A (11726209_a_at) / Fold change /veh FAM211A (11726209_a_at) / RFU RGS16 (11746705_a_at) / Fold change /veh RGS16 (11746705_a_at) / RFU VCAN (11755009_s_at) / Fold change /veh VCAN (11755009_s_at) / RFU RHOB (11743442_s_at) / Fold change /veh RHOB (11743442_s_at) / RFU RGS16 (11720943_a_at) / Fold change /veh RGS16 (11720943_a_at) / RFU RGS16 (11720944_at) / Fold change /veh RGS16 (11720944_at) / RFU, VPS4B / Fold change vs veh, VPS4B / RFU, CREB1 / Fold change vs veh, CREB1 / RFU, DNAJC13 / Fold change vs veh, DNAJC13 / RFU, GNAQ / Fold change vs veh, GNAQ / RFU, CDK5R1 / Fold change vs veh, CDK5R1 / RFU, ZRANB3 / Fold change vs veh, ZRANB3 / RFU, CUL4A / Fold change vs veh, CUL4A / RFU, CCNY / Fold change vs veh, CCNY / RFU, UFL1 / Fold change vs veh, UFL1 / RFU, COG3 / Fold change vs veh, COG3 / RFU, DIAPH2 / Fold change vs veh, DIAPH2 / RFU, SKA2 / Fold change vs veh, SKA2 / RFU, AFF3 / Fold change vs veh, AFF3 / RFU, LMF1 / Fold change vs veh, LMF1 / RFU, IPO11 / Fold change vs veh, IPO11 / RFU, DFFB / Fold change vs veh, DFFB / RFU, FOXP1 / Fold change vs veh, FOXP1 / RFU, CARD8 / Fold change vs veh, CARD8 / RFU, STRN3 / Fold change vs veh, STRN3 / RFU, ADK / Fold change vs veh, ADK / RFU, RASSF2 / Fold change vs veh, RASSF2 / RFU, WIPF1 / Fold change vs veh, WIPF1 / RFU, LARP1B / Fold change vs veh, LARP1B / RFU, RASA1 / Fold change vs veh, RASA1 / RFU, RB1 / Fold change vs veh, RB1 / RFU, PPFIA1 / Fold change vs veh, PPFIA1 / RFU, MAT2A / Fold change vs veh, MAT2A / RFU, CCT5 / Fold change vs veh, CCT5 / RFU, WDR92 / Fold change vs veh, WDR92 / RFU, CUX1 / Fold change vs veh, CUX1 / RFU, TTC7A / Fold change vs veh, TTC7A / RFU, TMEM135 / Fold change vs veh, TMEM135 / RFU, DEPTOR / Fold change vs veh, DEPTOR / RFU, CPM / Fold change vs veh, CPM / RFU, DNAJB6 / Fold change vs veh, DNAJB6 / RFU, CACNA2D3 / Fold change vs veh, CACNA2D3 / RFU, DTX4 / Fold change vs veh, DTX4 / RFU, TFCP2 / Fold change vs veh, TFCP2 / RFU, GMCL1 /// GMCL1P1 / Fold change vs veh, GMCL1 /// GMCL1P1 / RFU, AEBP2 / Fold change vs veh, AEBP2 / RFU, SNHG1 /// SNORD22 /// SNORD25 /// SNORD26 /// SNORD27 /// SNORD28 /// SNORD29 /// SNORD31 / Fold change vs veh, SNHG1 /// SNORD22 /// SNORD25 /// SNORD26 /// SNORD27 /// SNORD28 /// SNORD29 /// SNORD31 / Fold change (Aza/veh), C12orf56 (ProbeSet 11735607_a_at) / Fold change (ACY-1035/veh), C12orf56 (ProbeSet 11735607_a_at) / Fold change (Aza/veh), FGFR1OP (ProbeSet 11751329_s_at) / Fold change (ACY-1035/veh), FGFR1OP (ProbeSet 11751329_s_at) / Fold change (Aza/veh), VPS36 (ProbeSet 11739960_a_at) / Fold change (ACY-1035/veh), VPS36 (ProbeSet 11739960_a_at) / RFU SYPL1 (11715823_x_at) / Fold change /veh SYPL1 (11715823_x_at) / RFU IGFBP7 (11715501_s_at) / Fold change /veh IGFBP7 (11715501_s_at) / RFU REEP3 (11722064_at) / Fold change /veh REEP3 (11722064_at) / RFU IGLL1 (11728026_x_at) / Fold change /veh IGLL1 (11728026_x_at): dose or concentration left out as unconfirmed
Settings: ProbeSet 11721969_s_at; LIST B

Compound: Nc1ccc(-c2cccs2)cc1NC(=O)c1ccc2c(c1)cc(C1CC1)n2CCN1CCOCC1 [ACY-1035]
- RFU, BDP1: 485.00 RFU
